In patent US20240368135A1 (VERTEX PHARMACEUTICALS INCORPORATED, priority 2021, published 2024):
pIC50: −log10 of the molar value.

biological target: human NaV 1.8 (Homo sapiens, UniProt Q9Y5Y9); experiment: E-VIPR assay detecting and measuring NaV inhibition properties; assay type: cell-based; conditions: HEK cells expressing truncated human NaV 1.8; in the presence of human serum (compound numbers followed by *); read-out: IC50 in the E-VIPR Assay, performed in the presence of human serum
Outline: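 HEK cells expressing truncated, fully active human NaV1.8, with KIR2.1 BacMam co-transduction, were loaded with CC2-DMPE/DiSBAC6(3) voltage-sensing dyes for 20 min at room temperature. Compounds were tested in 11-point 3-fold dilutions (300 nM top final), optionally with 25% human serum, under electrical stimulation with FRET read-out.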

human NaV 1.8, sequence (Q9Y5Y9 126-399 limits assumed): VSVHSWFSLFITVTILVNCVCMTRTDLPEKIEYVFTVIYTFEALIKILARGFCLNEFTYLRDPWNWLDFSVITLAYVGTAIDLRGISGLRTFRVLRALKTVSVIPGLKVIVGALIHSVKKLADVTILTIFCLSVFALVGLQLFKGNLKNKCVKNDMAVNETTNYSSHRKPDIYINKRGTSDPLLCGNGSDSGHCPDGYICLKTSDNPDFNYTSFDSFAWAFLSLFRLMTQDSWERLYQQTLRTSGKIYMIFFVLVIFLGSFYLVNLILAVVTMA
human NaV 1.8, sequence (Q9Y5Y9 660-890 limits assumed): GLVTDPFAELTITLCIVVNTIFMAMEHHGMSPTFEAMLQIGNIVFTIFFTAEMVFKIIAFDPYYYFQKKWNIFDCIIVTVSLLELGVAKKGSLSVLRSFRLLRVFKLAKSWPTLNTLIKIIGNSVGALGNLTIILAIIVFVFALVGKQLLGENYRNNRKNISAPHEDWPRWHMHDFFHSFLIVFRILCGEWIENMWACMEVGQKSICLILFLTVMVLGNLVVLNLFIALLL
human NaV 1.8, sequence (Q9Y5Y9 1148-1722 limits assumed): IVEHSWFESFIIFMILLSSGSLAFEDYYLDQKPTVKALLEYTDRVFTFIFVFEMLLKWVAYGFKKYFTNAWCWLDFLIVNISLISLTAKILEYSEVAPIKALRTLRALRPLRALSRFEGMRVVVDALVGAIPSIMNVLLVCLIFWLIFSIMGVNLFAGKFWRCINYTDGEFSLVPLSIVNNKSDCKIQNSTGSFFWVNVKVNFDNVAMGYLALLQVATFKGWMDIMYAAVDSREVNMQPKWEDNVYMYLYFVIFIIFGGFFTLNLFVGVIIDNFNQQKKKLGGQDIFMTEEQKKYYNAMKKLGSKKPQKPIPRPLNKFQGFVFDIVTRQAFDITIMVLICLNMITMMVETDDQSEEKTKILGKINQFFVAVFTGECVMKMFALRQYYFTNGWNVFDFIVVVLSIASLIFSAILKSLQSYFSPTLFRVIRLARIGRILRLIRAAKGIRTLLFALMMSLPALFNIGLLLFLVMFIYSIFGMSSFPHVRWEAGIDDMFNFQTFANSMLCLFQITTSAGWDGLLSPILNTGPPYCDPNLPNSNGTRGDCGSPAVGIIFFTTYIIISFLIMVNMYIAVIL

COc1cc(F)ccc1[C@@H]1C[C@](C)(C(F)(F)F)O[C@H]1C(=O)Nc1ccnc(S(C)(=O)=O)c1 (stereo in doubt) [Compound 714, rel-(2R,3S,5R)-3-(4-fluoro-2-methoxyphenyl)-5-methyl-N-(2-(methylsulfonyl)pyridin-4-yl)-5-(trifluoromethyl)tetrahydrofuran-2-carboxamide] and CCc1c(F)ccc([C@H]2C[C@@](C)(C(F)(F)F)O[C@@H]2C(=O)Nc2cn(S(C)(=O)=O)nc2C)c1OC (stereo in doubt) [Compound 716, rel-(2S,3R,5S)-3-(3-ethyl-4-fluoro-2-methoxyphenyl)-5-methyl-N-(3-methyl-1-(methylsulfonyl)-1H-pyrazol-4-yl)-5-(trifluoromethyl)tetrahydrofuran-2-carboxamide] cannot be ordered by pIC50: 6.00 to 7.00 for the first, ≤ 6.00 for the second.

CCc1c(F)ccc([C@@H]2C[C@](C)(C(F)(F)F)O[C@H]2C(=O)Nc2cn(S(C)(=O)=O)nc2C)c1OC (stereo in doubt) [Compound 717, rel-(2R,3S,5R)-3-(3-ethyl-4-fluoro-2-methoxyphenyl)-5-methyl-N-(3-methyl-1-(methylsulfonyl)-1H-pyrazol-4-yl)-5-(trifluoromethyl)tetrahydrofuran-2-carboxamide] and CNCc1cc(NC(=O)C2OC(C)(C(F)(F)F)C(C)C2c2ccc(F)c(F)c2OC)c(F)cn1 (stereo not shown) [Compound 58, 3-(3,4-difluoro-2-methoxy-phenyl)-N-[5-fluoro-2-(methylaminomethyl)-4-pyridyl]-4,5-dimethyl-5-(trifluoromethyl)tetrahydrofuran-2-carboxamide] cannot be ordered by pIC50: 6.00 to 7.00 for the first, ≤ 6.00 for the second.

same assay, conditions: HEK cells expressing truncated human NaV 1.8; no human serum; read-out: IC50 in the E-VIPR Assay

COc1nc(C(F)F)ccc1[C@H]1[C@H](C(=O)Nc2ccc(C(N)=O)nc2)O[C@@](C)(C(F)(F)F)[C@H]1C (stereo in doubt) [Compound 734, rel-5-((2R,3S,4S,5R)-3-(6-(difluoromethyl)-2-methoxypyridin-3-yl)-4,5-dimethyl-5-(trifluoromethyl)tetrahydrofuran-2-carboxamido)picolinamide] and COc1nc(C(F)F)ccc1[C@@H]1[C@@H](C(=O)Nc2ccc(C(N)=O)nc2)O[C@](C)(C(F)(F)F)[C@@H]1C (stereo in doubt) [Compound 735, rel-5-((2S,3R,4R,5S)-3-(6-(difluoromethyl)-2-methoxypyridin-3-yl)-4,5-dimethyl-5-(trifluoromethyl)tetrahydrofuran-2-carboxamido)picolinamide] cannot be ordered by pIC50: 6.00 to 7.00 for the first, ≤ 6.00 for the second.

COc1c([C@H]2[C@H](C(=O)Nc3ccc(C(N)=O)nc3)O[C@@](C)(C(F)(F)F)[C@H]2C)ccc(F)c1F [Compound 1, 5-((2R,3S,4S,5R)-3-(3,4-difluoro-2-methoxyphenyl)-4,5-dimethyl-5-(trifluoromethyl)tetrahydrofuran-2-carboxamido)picolinamide] and COc1c([C@H]2[C@H](C(=O)Nc3ccc(C(=O)O)nc3)O[C@@](C)(C(F)(F)F)[C@H]2C)ccc(F)c1F [Compound 19, 5-[[(2R,3S,4S,5R)-3-(3,4-difluoro-2-methoxy-phenyl)-4,5-dimethyl-5-(trifluoromethyl)tetrahydrofuran-2-carbonyl]amino]pyridine-2-carboxylic acid] cannot be ordered by pIC50: > 8.00 for the first, > 8.00 for the second.

COc1c([C@H]2[C@H](C(=O)Nc3ccc(C(N)=O)[n+]([O-])c3)O[C@@](C)(C(F)(F)F)[C@H]2C)ccc(F)c1F [Compound 2, 2-carbamoyl-5-((2R,3S,4S,5R)-3-(3,4-difluoro-2-methoxyphenyl)-4,5-dimethyl-5-(trifluoromethyl)tetra hydrofuran-2-carboxamido)pyridine 1-oxide] and COc1c([C@H]2[C@H](C(=O)Nc3ccc4nc(C(N)=O)nn4c3)O[C@@](C)(C(F)(F)F)[C@H]2C)ccc(F)c1F [Compound 16] fall in the same range of pIC50: 7.00 to 8.00 for the first, 7.00 to 8.00 for the second.

COc1c([C@H]2[C@H](C(=O)Nc3cc(C[C@H](O)CO)n(C)n3)O[C@@](C)(C(F)(F)F)[C@H]2C)ccc(F)c1F [Compound 5, (2R,3S,4S,5R)-3-(3,4-difluoro-2-methoxyphenyl)-N-(5-((S)-2,3-dihydroxypropyl)-1-methyl-1H-pyrazol-3-yl)-4,5-dimethyl-5-(trifluoromethyl)tetrahydrofuran-2-carboxamide] and COc1c([C@H]2[C@H](C(=O)Nc3cc(CO)nn3C)O[C@@](C)(C(F)(F)F)[C@H]2C)ccc(F)c1F [Compound 20, (2R,3S,4S,5R)-3-(3,4-difluoro-2-methoxy-phenyl)-N-[5-(hydroxymethyl)-2-methyl-pyrazol-3-yl]-4,5-dimethyl-5-(trifluoromethyl)tetrahydrofuran-2-carboxamide] fall in the same range of pIC50: 7.00 to 8.00 for the first, 7.00 to 8.00 for the second.

First: COCC(C)(C)N(C)Cc1cc(NC(=O)[C@@H]2O[C@@](C)(C(F)(F)F)[C@@H](C)[C@H]2c2ccc(F)c(F)c2OC)ccn1 [Compound 15]
Second: COc1c(C2C(C(=O)Nc3ccnc(CO)c3)OC(C)(C(F)(F)F)C2C)ccc(F)c1F (stereo not shown) [Compound 61, 3-(3,4-difluoro-2-methoxy-phenyl)-N-[2-(hydroxymethyl)-4-pyridyl]-4,5-dimethyl-5-(trifluoromethyl)tetrahydrofuran-2-carboxamide]
The pIC50 of the first is higher: 7.00 to 8.00 for the first, ≤ 6.00 for the second.

Compared with COc1c(C2C(C(=O)Nc3cnnc(CO)c3)OC(C)(C(F)(F)F)C2C)ccc(F)c1F (stereo not shown) [Compound 18, 3-(3,4-difluoro-2-methoxy-phenyl)-N-[6-(hydroxymethyl)pyridazin-4-yl]-4,5-dimethyl-5-(trifluoromethyl)tetrahydrofuran-2-carboxamide], COc1c([C@H]2[C@H](C(=O)Nc3cnc(CO)n3C)O[C@@](C)(C(F)(F)F)[C@H]2C)ccc(F)c1F [Compound 21, (2R,3S,4S,5R)-3-(3,4-difluoro-2-methoxy-phenyl)-N-[2-(hydroxymethyl)-3-methyl-imidazol-4-yl]-4,5-dimethyl-5-(trifluoromethyl)tetrahydrofuran-2-carboxamide] is lower in pIC50: > 8.00 for the first, 7.00 to 8.00 for the second.

Compared with COc1c([C@H]2[C@H](C(=O)Nc3ccnc(CN[C@@H]4CCOC4)c3)O[C@@](C)(C(F)(F)F)[C@H]2C)ccc(F)c1F [Compound 23], COCCNCc1cc(NC(=O)C2OC(C)(C(F)(F)F)C(C)C2c2ccc(F)c(F)c2OC)ccn1 (stereo not shown) [Compound 59, 3-(3,4-difluoro-2-methoxy-phenyl)-N-[2-[(2-methoxyethylamino)methyl]-4-pyridyl]-4,5-dimethyl-5-(trifluoromethyl)tetrahydrofuran-2-carboxamide] is lower in pIC50: > 8.00 for the first, ≤ 6.00 for the second.

COCCNCc1cc(NC(=O)C2OC(C)(C(F)(F)F)C(C)C2c2ccc(F)c(F)c2OC)ccn1 (stereo not shown) [Compound 60, 3-(3,4-difluoro-2-methoxy-phenyl)-N-[2-[(2-methoxyethylamino)methyl]-4-pyridyl]-4,5-dimethyl-5-(trifluoromethyl)tetrahydrofuran-2-carboxamide] and COc1c(C2C(C(=O)Nc3ccnc(S(=O)(=O)CCO)c3)OC(C)(C(F)(F)F)C2C)ccc(F)c1F (stereo not shown) [Compound 62, 3-(3,4-difluoro-2-methoxy-phenyl)-N-[2-(2-hydroxyethylsulfonyl)-4-pyridyl]-4,5-dimethyl-5-(trifluoromethyl)tetrahydrofuran-2-carboxamide] cannot be ordered by pIC50: > 8.00 for the first, > 8.00 for the second.

Cc1c(F)ccc(C2C(C(=O)Nc3ccnc(S(C)(=O)=O)c3)OC(C)(C(F)(F)F)C2C)c1OC(F)F (stereo not shown) [Compound 97, 3-[2-(difluoromethoxy)-4-fluoro-3-methyl-phenyl]-4,5-dimethyl-N-(2-methylsulfonyl-4-pyridyl)-5-(trifluoromethyl)tetrahydrofuran-2-carboxamide] and Cc1c(F)ccc(C2C(C(=O)Nc3ccn(C)c(=O)c3)OC(C)(C(F)(F)F)C2C)c1OC(F)F (stereo not shown) [Compound 98, 3-[2-(difluoromethoxy)-4-fluoro-3-methyl-phenyl]-4,5-dimethyl-N-(1-methyl-2-oxo-4-pyridyl)-5-(trifluoromethyl)tetrahydrofuran-2-carboxamide] cannot be ordered by pIC50: > 8.00 for the first, > 8.00 for the second.

CCOc1c(C2C(C(=O)Nc3ccnc(S(C)(=O)=NC)c3)OC(C)(C(F)(F)F)C2C)ccc(F)c1F (stereo not shown) [Compound 113, N-[2-(N,S-dimethylsulfonimidoyl)-4-pyridyl]-3-(2-ethoxy-3,4-difluoro-phenyl)-4,5-dimethyl-5-(trifluoromethyl)tetrahydrofuran-2-carboxamide] and CN=S(C)(=O)c1cc(NC(=O)C2OC(C)(C(F)(F)F)C(C)C2c2ccc(F)c(C)c2OC)ccn1 (stereo not shown) [Compound 152, N-[2-(N,S-dimethylsulfonimidoyl)-4-pyridyl]-3-(4-fluoro-2-methoxy-3-methyl-phenyl)-4,5-dimethyl-5-(trifluoromethyl)tetrahydrofuran-2-carboxamide] cannot be ordered by pIC50: > 8.00 for the first, > 8.00 for the second.

CCOc1c(C2C(C(=O)Nc3cc(S(C)(=N)=O)c[n+](C)c3)OC(C)(C(F)(F)F)C2C)ccc(F)c1F (stereo not shown) [Compound 114, 3-(2-ethoxy-3,4-difluoro-phenyl)-4,5-dimethyl-N-[1-methyl-5-(methylsulfonimidoyl)pyridin-1-ium-3-yl]-5-(trifluoromethyl)tetrahydrofuran-2-carboxamide] and CC(C)Oc1c(C2C(C(=O)Nc3cc(S(C)(=O)=O)ccn3)OC(C)(C(F)(F)F)C2C)ccc(F)c1F (stereo not shown) [Compound 115, 3-(3,4-difluoro-2-isopropoxy-phenyl)-4,5-dimethyl-N-(4-methylsulfonyl-2-pyridyl)-5-(trifluoromethyl)tetrahydrofuran-2-carboxamide] cannot be ordered by pIC50: 6.00 to 7.00 for the first, ≤ 6.00 for the second.

Compared with CC(C)Oc1c(C2C(C(=O)Nc3cc(S(C)(=O)=O)ccn3)OC(C)(C(F)(F)F)C2C)ccc(F)c1F (stereo not shown) [Compound 116, 3-(3,4-difluoro-2-isopropoxy-phenyl)-4,5-dimethyl-N-(4-methylsulfonyl-2-pyridyl)-5-(trifluoromethyl)tetrahydrofuran-2-carboxamide], COc1c(C2C(C(=O)Nc3ccc(C(N)=O)nc3)OC(C)(C(F)(F)F)C2C)ccc(C(F)F)c1F (stereo not shown) [Compound 158, 5-[[3-[4-(difluoromethyl)-3-fluoro-2-methoxy-phenyl]-4,5-dimethyl-5-(trifluoromethyl)tetrahydrofuran-2-carbonyl]amino]pyridine-2-carboxamide] is higher in pIC50: 6.00 to 7.00 for the first, 7.00 to 8.00 for the second. The second is the more potent here.
